According to patent publication US20170087106A1, “Method for supporting gut health” (priority 2015, published 2017):
Marks after values point to notes of the source that are not given here.

Columns and labels:
[1] = test system: COX-2; test: DCA-induced IBS in rats: colonic COX-2 expression by qPCR; type: in vivo, rat; conditions: colonic tissue, two weeks oral daily, mean ± SEM
Protocol: (§1) Male Sprague Dawley rats (240-320 g) were administered DCA once daily on 3 consecutive days, and then divided into the different experimental groups (n=8): three received orally and daily CPM (40 and 100 mg/kg) or Gabapentin (70 mg/kg); a non IBS and an untreated control IBS group were also included. One and two weeks after, abdominal withdrawal reflex to colorectal distension (CRD) was semi quantitatively scored. Also the referred pain was evaluated with Von Frey filaments. After two weeks of treatment, all rats were sacrificed and the expression of different markers IL-1β and COX-2 evaluated in the colonic tissue by qPCR.

[2] = test system: experimental model of irritable bowel syndrome (IBS) in rats induced by deoxycholic acid (DCA); test: DCA-induced IBS in rats: abdominal withdrawal reflex to colorectal distension (CRD); type: in vivo, rat; conditions: oral daily, mean ± SEM
Protocol: as §1

[3] = test system: IL-1β; test: DCA-induced IBS in rats: colonic IL-1β expression by qPCR; type: in vivo, rat; conditions: colonic tissue, two weeks oral daily, mean ± SEM
Protocol: as §1

[4] = test system: experimental model of irritable bowel syndrome (IBS) in rats induced by deoxycholic acid (DCA); test: DCA-induced IBS in rats: referred pain with Von Frey filaments (AUC); type: in vivo, rat; conditions: for referred pain (in words): Von Frey filaments; for AUC: oral daily, mean ± SEM
Protocol: as §1

[5] = test system: glutathione (GSH); test: TNBS rat colitis: colonic total glutathione (GSH) content; type: in vivo; conditions: colonic tissue, oral daily 7 days, 30 mg/kg, mean ± SEM
Protocol: (§2) Female Wistar rats (180-200 g) were randomly assigned to nine groups (n=10). Three groups received treatment with CaPyr (20, 40 and 100 mg/kg); other three received treatment with ethyl pyruvate (20, 40 and 100 mg/kg); and the remaining was treated with sulphasalazine (30 mg/kg). All compounds were dissolved in 1 ml of carboxymethylcellulose (0.2%) in water solution, and administered daily by oral gavage. An untreated TNBS control group and a non-colitic group were included for reference, which received the vehicle used to administer the test compounds. Colonic inflammation was induced in control and treated groups as generally described (see Galvez et al. 2014). Briefly, rats were fasted overnight, anesthetized with halothane and given TNBS dissolved in 0.25 ml of 50% ethanol (v/v) by means of a Teflon cannula inserted 8 cm through the anus. During and after TNBS administration, the rats were kept in a head-down position until they recovered from anaesthesia, and then returned to their cages. Rats from the non-colitic group were administered intracolonically 0.25 ml of phosphate buffered saline instead of TNBS. The treatments were given from the day of the colitis induction until the sacrifice of the rats with an overdose of halothane, seven days later. Animal body weights, occurrence of diarrhoea, and water and food intake were recorded daily throughout all the experiments. Once the animals were sacrificed, the colon was removed aseptically and placed on an ice-cold plate, longitudinally opened and cleaned from their luminal contents with cold saline. Afterwards, it was weighed and its length measured under a constant load (2 g). Each colon was scored for macroscopically visible damage on a 0-10 scale by two observers unaware of the experiment, according to the criteria described before (see Galvez et al. 2014). Colon samples (0.5 cm^2) containing all the layers were taken from a region of the inflamed colon corresponding to the adjacent segment to the gross macroscopic damage and were fixed in 4% buffered formaldehyde for the histological studies. Equivalent colonic segments were also obtained from the non-colitic group. The colon was subsequently minced, aliquoted and kept frozen at −80° C. until biochemical determinations and RNA extraction was performed.
(§3) Myeloperoxidase (MPO) activity was measured according to the technique described previously (Krawiszet al., 1984); the results were expressed as MPO units per gram of wet tissue; one unit of MPO activity was defined as that degrading 1 μmol hydrogen peroxide/min at 25° C. Total glutathione (GSH) content was quantified with the recycling assay described by Anderson (1985), and the results were expressed as nmol/g wet tissue. In order to evaluate tissue IL-1β levels, the colonic samples were homogenized in phosphate buffered saline supplemented with 0.1% sodium dodecyl sulfate (SDS), 0.1% sodium deoxycholate, 1% Triton X-100 and protease and phosphatase inhibitors (aprotinin, leupeptin and phenylmethylsulfonyl fluoride). The cytokine was quantified by enzyme-linked immunoabsorbent assay (R&D Systems Inc., Minneapolis, Minn., USA) and the results were expressed as pg/g wet tissue.

[6] = test system: IL-1β; test: TNBS rat colitis: colonic IL-1β by ELISA; type: in vivo; conditions: colonic tissue, oral daily 7 days, 30 mg/kg, mean ± SEM
Protocol: as §2, §3

[7] = test system: IL-17; test: TNBS rat colitis: colonic IL-17 mRNA by real-time PCR; type: in vivo; conditions: colon, oral daily 7 days, 30 mg/kg, mean ± SEM
Protocol: as §2
(§4) Analysis of gene expression in colonic samples by RT-qPCR Total RNA from colonic samples was isolated using Trizol® (Thermo Fisher Scientific Inc., Waltham, Mass. USA) following the manufacturer's protocol. All RNA samples were quantified with the Thermo Scientific NanoDrop™ 2000 Spectrophotometer (Thermo Fisher Scientific Inc., Waltham, Mass. USA) and […] of RNA were reverse transcribed using oligo(dT) primers (Promega, Southampton, UK).
(§5) Real time quantitative PCR amplification and detection was performed on optical-grade 48 well plates in an Eco™ Real-Time PCR System (Illumina, CA, USA) with 20 ng of cDNA, the KAPA SYBR® FAST qPCR Master Mix (Illumina, CA, USA) and specific primers at their annealing temperature (Ta). To normalize mRNA expression, the expression of the housekeeping gene, glyceraldehyde-3-phosphate dehydrogenase (GAPDH) was measured. The mRNA relative quantitation was calculated using the ΔΔCt method.

[8] = test system: IL-12; test: TNBS rat colitis: colonic IL-12 mRNA by real-time PCR; type: in vivo; conditions: colon, oral daily 7 days, 30 mg/kg, mean ± SEM
Protocol: as §2, §4, §5

[9] = test system: IL-6; test: TNBS rat colitis: colonic IL-6 mRNA by real-time PCR; type: in vivo; conditions: colon, oral daily 7 days, 30 mg/kg, mean ± SEM
Protocol: as §2, §4, §5

[10] = test system: ICAM-1; test: TNBS rat colitis: colonic ICAM-1 mRNA by real-time PCR; type: in vivo; conditions: colon, oral daily 7 days, 30 mg/kg, mean ± SEM
Protocol: as §2, §4, §5

[11] = test system: IL-1β; test: TNBS rat colitis: colonic IL-1β mRNA by real-time PCR; type: in vivo; conditions: colon, oral daily 7 days, 30 mg/kg, mean ± SEM
Protocol: as §2, §4, §5

[12] = test system: MUC-2; test: TNBS rat colitis: colonic MUC-2 mRNA by real-time PCR; type: in vivo; conditions: colon, oral daily 7 days, 30 mg/kg, mean ± SEM
Protocol: as §2, §4, §5

[13] = test system: TNBS experimental rat colitis; test: TNBS rat colitis: colonic macroscopic damage score and weight/length ratio; type: in vivo; conditions: TNBS rat colitis, oral daily 7 days, 30 mg/kg, mean ± SEM
Protocol: as §2

[14] = test system: CINC-1; test: TNBS rat colitis: colonic CINC-1 mRNA by real-time PCR; type: in vivo; conditions: colon, oral daily 7 days, 30 mg/kg, mean ± SEM
Protocol: as §2, §4, §5

[15] = test system: TNBS experimental rat colitis; test: TNBS rat colitis: microscopic (histological) damage score; type: in vivo; conditions: oral daily 7 days, 30 mg/kg, mean ± SEM
Protocol: as §2
Cross-sections were selected and embedded in paraffin. Full-thickness sections of 5 μm were obtained at different levels and stained with haematoxylin and eosin. The histological damage was evaluated by a pathologist observer, who was blinded to the experimental groups, according to the criteria previously described by Galvez.

[16] = test system: MCP-1; test: TNBS rat colitis: colonic MCP-1 mRNA by real-time PCR; type: in vivo; conditions: colon, oral daily 7 days, 30 mg/kg, mean ± SEM
Protocol: as §2, §4, §5

[17] = test system: myeloperoxidase (MPO); test: TNBS rat colitis: colonic myeloperoxidase (MPO) activity; type: in vivo; conditions: colonic tissue, oral daily 7 days, 30 mg/kg, mean ± SEM
Protocol: as §2, §3

[18] = test system: TFF-3; test: TNBS rat colitis: colonic TFF-3 mRNA by real-time PCR; type: in vivo; conditions: colon, oral daily 7 days, 30 mg/kg, mean ± SEM
Protocol: as §2, §4, §5

[19] = test system: IL-23; test: TNBS rat colitis: colonic IL-23 mRNA by real-time PCR; type: in vivo; conditions: colon, oral daily 7 days, 30 mg/kg, mean ± SEM
Protocol: as §2, §4, §5

[20] = test system: iNOS; test: TNBS rat colitis: colonic iNOS mRNA by real-time PCR; type: in vivo; conditions: colon, oral daily 7 days, 30 mg/kg, mean ± SEM
Protocol: as §2, §4, §5

NCC1(CC(=O)O)CCCCC1 [Gabapentin]
qPCR COX-2 ([1]; 30 mg/kg (table)): 1.74 ± 0.36^c fold increase
CRD ([2]; 30 mg/kg (table)): 0.25 ± 0.1^a units
qPCR IL-1β ([3]; 30 mg/kg (table)): 8.28 ± 1.38^c fold increase
referred pain (in words) [4]: attenuated
AUC ([4]; 30 mg/kg (table)): 27.30 ± 6.83^a arbitrary units

O=C(O)c1cc(/N=N/c2ccc(S(=O)(=O)Nc3ccccn3)cc2)ccc1O [SAZ, sulphasalazine]
GSH [5]: 900 ± 118 nmol/g tissue
IL-1β (ELISA) [6]: 840.0 ± 120.0 ng/g tissue
IL-17 mRNA expression [7]: 2.22 ± 0.54 fold increase
IL-12 mRNA expression [8]: 1.59 ± 0.24 fold increase
IL-6 mRNA expression [9]: 4.21 ± 0.80 fold increase
ICAM-1 mRNA expression [10]: 2.90 ± 0.88 fold increase
IL-1β mRNA expression [11]: 9.70 ± 0.90 fold increase
MUC-2 mRNA expression [12]: 0.53 ± 0.14 fold increase
Damage Score (0-10) [13]: 6.7 ± 0.4
Weight/length ([13]; colon): 180.4 ± 16.9 mg/cm
CINC-1 mRNA expression [14]: 4.89 ± 0.82 fold increase
Microscopic Damage Score (0-59) [15]: 30 ± 5
MCP-1 mRNA expression [16]: 2.62 ± 0.41 fold increase
MPO [17]: 82.8 ± 8.2 mU/g tissue
TFF-3 mRNA expression [18]: 0.91 ± 0.12 fold increase
IL-23 mRNA expression [19]: 1.26 ± 0.18 fold increase
iNOS mRNA expression [20]: 16.47 ± 2.75 fold increase

calcium pyruvate monohydrate [CPM]
qPCR COX-2 ([1]; 40 mg/kg): 2.47 ± 0.58^c fold increase
qPCR COX-2 ([1]; 100 mg/kg): 1.60 ± 0.36^c fold increase
CRD ([2]; 40 mg/kg): 1.30 ± 0.14^c units
CRD ([2]; 100 mg/kg): 0.70 ± 0.14^a,c units
qPCR IL-1β ([3]; 40 mg/kg): 7.82 ± 2.07^c fold increase
qPCR IL-1β ([3]; 100 mg/kg): 5.52 ± 1.15^c fold increase
referred pain (in words) [4]: attenuated
AUC ([4]; 40 mg/kg): 104.65 ± 20.48^a arbitrary units
AUC ([4]; 100 mg/kg): 63.70 ± 22.75^a arbitrary units
